# Measurements reported in patent US20090176817A1, “Method of Treatment of Diarrhea-Predominant Irritable Bowel Syndrome in a Subject” (priority 2005, published 2009).
# System: diarrhea-predominant IBS subjects
# Assay: Study S241.3.011: weekly diary questions on adequate relief
# Type: in vivo, human
# Conditions: for Number of months a subject was a responder: Zero months (IBS symptoms) / Overall responder rate, adequate relief of IBS symptoms / Overall responder rate, adequate relief of abdominal pain/discomfort / Overall responder rate, adequate relief of abnormal bowel habits / Number of months a subject was a responder: One month (Abdominal pain/discomfort) / Number of months a subject was a responder: One month (Abnormal bowel habits) / Number of months a subject was a responder: One month (IBS symptoms) / Number of months a subject was a responder: Three months (Abdominal pain/discomfort) / Number of months a subject was a responder: Three months (Abnormal bowel habits) / Number of months a subject was a responder: Three months (IBS symptoms) / Number of months a subject was a responder: Two months (Abdominal pain/discomfort) / Number of months a subject was a responder: Two months (Abnormal bowel habits) / Number of months a subject was a responder: Two months (IBS symptoms) / Number of months a subject was a responder: Zero months (Abdominal pain/discomfort) / Number of months a subject was a responder: Zero months (Abnormal bowel habits): three-month treatment period; for Number of months a subject was a responder: Zero months (IBS symptoms) / Number of months a subject was a responder: One month (Abdominal pain/discomfort) / Number of months a subject was a responder: One month (Abnormal bowel habits) / Number of months a subject was a responder: One month (IBS symptoms) / Number of months a subject was a responder: Three months (Abdominal pain/discomfort) / Number of months a subject was a responder: Three months (Abnormal bowel habits) / Number of months a subject was a responder: Three months (IBS symptoms) / Number of months a subject was a responder: Two months (Abdominal pain/discomfort) / Number of months a subject was a responder: Two months (Abnormal bowel habits) / Number of months a subject was a responder: Two months (IBS symptoms) / Number of months a subject was a responder: Zero months (Abdominal pain/discomfort) / Number of months a subject was a responder: Zero months (Abnormal bowel habits): monthly LOCF; for Overall responder rate, adequate relief of IBS symptoms / Overall responder rate, adequate relief of abdominal pain/discomfort / Overall responder rate, adequate relief of abnormal bowel habits: observed case
# Experimental: Study S241.3.011 was a Phase III, double-blind, placebo-controlled, randomized, multinational study to investigate the safety and efficacy of 2 mg TID of cilansetron for a period of 12 weeks followed by a rerandomized, placebo-controlled four-week treatment period, in diarrhea-predominant IBS subjects. The study was conducted in six countries including the US. A total of 2115 subjects consented to participate, and 770 subjects were randomized. A total of 746 subjects were analyzed for efficacy and 755 subjects were analyzed for safety. Diagnosis and main criteria for inclusion were IBS subjects satisfying the Rome I criteria (1992); the diarrhea predominant sub-population of the Rome II criteria; and a minimum abdominal pain/discomfort, stool frequency and consistency determined during the run-in period. Subjects were treated with cilansetron 2 mg tablets given orally TID or matching placebo tablets given orally TID for 12 weeks followed by a rerandomized, placebo-controlled four-week treatment period.
# The primary efficacy parameter was the number of months that a subject was a responder for IBS symptoms (abdominal pain, abdominal discomfort, abnormal bowel habits) over the 12-week treatment period. A responder for a month (monthly responder) was defined as a subject who answered the weekly question with “yes” at least twice for that month. The two main secondary efficacy parameters were the monthly responder rates based on the “adequate relief” questions regarding abdominal pain/discomfort and abnormal bowel habits during the 12-week treatment period. The overall response rate and responder rate for the weekly diary questions on adequate relief at each month and all months, the adequate relief rate, the number of subjects with adequate relief by week, daily diary questions, IBS-QOL scores, and the interruption of activities were also assessed. Safety was evaluated by physical examination, ECG, vital signs, laboratory evaluations, concomitant medications, and AEs.
# Subjects who were initially randomized to the cilansetron 2 mg TID group and rerandomized to placebo, will be referred to as the C/P treatment group; subjects initially randomized to the placebo group and rerandomized to placebo will be referred to as the P/P treatment group; the P/C and C/C treatment group nomenclature follow the same principle. Of the 591 subjects who completed the three-month treatment period, 576 subjects were rerandomized and thus divided into the following treatment groups: 150 subjects in the C/C treatment group, 140 subjects in the C/P treatment group, 136 subjects in the P/C treatment group, and 150 subjects in the P/P treatment group. Of the 576 subjects rerandomized, a higher percentage of subjects in the C/C treatment group (99%) completed the study compared with the C/P (95%), P/C (93%), and the P/P (95%) treatment groups.
# Studies S24 1.3.OO6, S24 1.3.0 1 1, and S24 1.3.009 used the following efficacy measurements: • The subjects answered the following three questions with “yes” or “no” using a phone diary at the end of each week: • a) During the last week, did you experience adequate relief of your IBS symptoms, such as abdominal pain, abdominal discomfort, abnormal bowel habits? • b) During the last week, did you experience adequate relief of your abdominal pain and/or discomfort? • c) During the last week, did you experience adequate relief of your abnormal bowel habits? • The subjects rated the following symptoms using the phone diary at the end of each day: • abdominal pain/discomfort (five-point scale); • stool consistency (seven-point Bristol Stool Scale); • stool frequency (number of bowel movements each day); • urgency (five-point scale); • straining (yes or no); • feeling of incomplete defecation (yes or no); • bloating or feeling of abdominal distension (five-point scale). • In Studies S241 A006 and S241.3.009, subjects completed the IBS-QOL Survey at Baseline (Day 1) and at the end of treatment. […]
# [1] = Baseline BMI: <30 kg/m^2, ITT, 2 mg TID
# [2] = Baseline BMI: ≧30 kg/m^2, ITT, 2 mg TID
# [3] = Baseline severity of IBS: non-severe, ITT, 2 mg TID
# [4] = Baseline severity of IBS: severe, ITT, 2 mg TID
# [5] = Duration of IBS: >24 months to ≦48 months, 2 mg TID, monthly LOCF imputation, ITT
smiles,measurement,setting,value
"Cc1nccn1C[C@H]1CCc2c(c3cccc4c3n2CCC4)C1=O [Cilansetron, (R)-(−)-4,5,6,8,9,10-hexahydro-10-[(2-methyl-1H-imidazol-1-yl)methyl]-11H-pyrido-[3,2,1-jk]-carbazol-11-one]",Number of months a subject was a responder: Zero months (IBS symptoms),[1],73 (27) n (%)
same,"Overall responder rate, adequate relief of IBS symptoms",[1],148 (56) n (%)
same,"Overall responder rate, adequate relief of abdominal pain/discomfort",[1],158 (59) n (%)
same,"Overall responder rate, adequate relief of abnormal bowel habits",[1],150 (56) n (%)
same,Number of months a subject was a responder: One month (Abdominal pain/discomfort),[2],15 (14) n (%)
same,Number of months a subject was a responder: One month (Abnormal bowel habits),[2],17 (15) n (%)
same,Number of months a subject was a responder: One month (IBS symptoms),[2],16 (14) n (%)
same,Number of months a subject was a responder: Three months (Abdominal pain/discomfort),[2],46 (41) n (%)
same,Number of months a subject was a responder: Three months (Abnormal bowel habits),[2],45 (41) n (%)
same,Number of months a subject was a responder: Three months (IBS symptoms),[2],41 (37) n (%)
same,Number of months a subject was a responder: Two months (Abdominal pain/discomfort),[2],22 (20) n (%)
same,Number of months a subject was a responder: Two months (Abnormal bowel habits),[2],15 (14) n (%)
same,Number of months a subject was a responder: Two months (IBS symptoms),[2],22 (20) n (%)
same,Number of months a subject was a responder: Zero months (Abdominal pain/discomfort),[2],28 (25) n (%)
same,Number of months a subject was a responder: Zero months (Abnormal bowel habits),[2],34 (31) n (%)
same,Number of months a subject was a responder: Zero months (IBS symptoms),[2],32 (29) n (%)
same,"Overall responder rate, adequate relief of IBS symptoms",[2],58 (52) n (%)
same,"Overall responder rate, adequate relief of abdominal pain/discomfort",[2],63 (57) n (%)
same,"Overall responder rate, adequate relief of abnormal bowel habits",[2],53 (48) n (%)
same,Number of months a subject was a responder: One month (Abdominal pain/discomfort),[3],25 (11) n (%)
same,Number of months a subject was a responder: One month (Abnormal bowel habits),[3],26 (12) n (%)
same,Number of months a subject was a responder: One month (IBS symptoms),[3],29 (13) n (%)
same,Number of months a subject was a responder: Three months (Abdominal pain/discomfort),[3],97 (44) n (%)
same,Number of months a subject was a responder: Three months (Abnormal bowel habits),[3],88 (40) n (%)
same,Number of months a subject was a responder: Three months (IBS symptoms),[3],92 (41) n (%)
same,Number of months a subject was a responder: Two months (Abdominal pain/discomfort),[3],40 (18) n (%)
same,Number of months a subject was a responder: Two months (Abnormal bowel habits),[3],40 (18) n (%)
same,Number of months a subject was a responder: Two months (IBS symptoms),[3],39 (18) n (%)
same,Number of months a subject was a responder: Zero months (Abdominal pain/discomfort),[3],60 (27) n (%)
same,Number of months a subject was a responder: Zero months (Abnormal bowel habits),[3],68 (31) n (%)
same,Number of months a subject was a responder: Zero months (IBS symptoms),[3],62 (28) n (%)
same,"Overall responder rate, adequate relief of IBS symptoms",[3],124 (56) n (%)
same,"Overall responder rate, adequate relief of abdominal pain/discomfort",[3],131 (59) n (%)
same,"Overall responder rate, adequate relief of abnormal bowel habits",[3],121 (55) n (%)
same,Number of months a subject was a responder: One month (Abdominal pain/discomfort),[4],20 (13) n (%)
same,Number of months a subject was a responder: One month (Abnormal bowel habits),[4],24 (15) n (%)
same,Number of months a subject was a responder: One month (IBS symptoms),[4],25 (16) n (%)
same,Number of months a subject was a responder: Three months (Abdominal pain/discomfort),[4],62 (40) n (%)
same,Number of months a subject was a responder: Three months (Abnormal bowel habits),[4],61 (39) n (%)
same,Number of months a subject was a responder: Three months (IBS symptoms),[4],56 (36) n (%)
same,Number of months a subject was a responder: Two months (Abdominal pain/discomfort),[4],32 (21) n (%)
same,Number of months a subject was a responder: Two months (Abnormal bowel habits),[4],26 (17) n (%)
same,Number of months a subject was a responder: Two months (IBS symptoms),[4],31 (20) n (%)
same,Number of months a subject was a responder: Zero months (Abdominal pain/discomfort),[4],41 (26) n (%)
same,Number of months a subject was a responder: Zero months (Abnormal bowel habits),[4],44 (28) n (%)
same,Number of months a subject was a responder: Zero months (IBS symptoms),[4],43 (28) n (%)
same,"Overall responder rate, adequate relief of IBS symptoms",[4],82 (53) n (%)
same,"Overall responder rate, adequate relief of abdominal pain/discomfort",[4],90 (58) n (%)
same,"Overall responder rate, adequate relief of abnormal bowel habits",[4],82 (53) n (%)
same,"Overall responder rate, IBS symptoms",Caucasians,53%
same,"Overall responder rate, abdominal pain/discomfort",Caucasians,57%
same,"Overall responder rate, abnormal bowel habits",Caucasians,51%
same,"Number of months a subject was a responder during the three-month treatment period: Abdominal pain/discomfort, One month",[5],10 (14) n (%)
same,"Number of months a subject was a responder during the three-month treatment period: Abdominal pain/discomfort, Three months",[5],32 (44) n (%)
same,"Number of months a subject was a responder during the three-month treatment period: Abdominal pain/discomfort, Two months",[5],15 (21) n (%)
same,"Number of months a subject was a responder during the three-month treatment period: Abdominal pain/discomfort, Zero months",[5],15 (21) n (%)
same,"Number of months a subject was a responder during the three-month treatment period: Abnormal bowel habits, One month",[5],10 (14) n (%)
same,"Number of months a subject was a responder during the three-month treatment period: Abnormal bowel habits, Three months",[5],32 (44) n (%)
